Usually IC50 stands for the concentration needed to halve the response being measured. Lower therefore signals greater potency.

Chain of Tie-2 (Q02763 23-1124): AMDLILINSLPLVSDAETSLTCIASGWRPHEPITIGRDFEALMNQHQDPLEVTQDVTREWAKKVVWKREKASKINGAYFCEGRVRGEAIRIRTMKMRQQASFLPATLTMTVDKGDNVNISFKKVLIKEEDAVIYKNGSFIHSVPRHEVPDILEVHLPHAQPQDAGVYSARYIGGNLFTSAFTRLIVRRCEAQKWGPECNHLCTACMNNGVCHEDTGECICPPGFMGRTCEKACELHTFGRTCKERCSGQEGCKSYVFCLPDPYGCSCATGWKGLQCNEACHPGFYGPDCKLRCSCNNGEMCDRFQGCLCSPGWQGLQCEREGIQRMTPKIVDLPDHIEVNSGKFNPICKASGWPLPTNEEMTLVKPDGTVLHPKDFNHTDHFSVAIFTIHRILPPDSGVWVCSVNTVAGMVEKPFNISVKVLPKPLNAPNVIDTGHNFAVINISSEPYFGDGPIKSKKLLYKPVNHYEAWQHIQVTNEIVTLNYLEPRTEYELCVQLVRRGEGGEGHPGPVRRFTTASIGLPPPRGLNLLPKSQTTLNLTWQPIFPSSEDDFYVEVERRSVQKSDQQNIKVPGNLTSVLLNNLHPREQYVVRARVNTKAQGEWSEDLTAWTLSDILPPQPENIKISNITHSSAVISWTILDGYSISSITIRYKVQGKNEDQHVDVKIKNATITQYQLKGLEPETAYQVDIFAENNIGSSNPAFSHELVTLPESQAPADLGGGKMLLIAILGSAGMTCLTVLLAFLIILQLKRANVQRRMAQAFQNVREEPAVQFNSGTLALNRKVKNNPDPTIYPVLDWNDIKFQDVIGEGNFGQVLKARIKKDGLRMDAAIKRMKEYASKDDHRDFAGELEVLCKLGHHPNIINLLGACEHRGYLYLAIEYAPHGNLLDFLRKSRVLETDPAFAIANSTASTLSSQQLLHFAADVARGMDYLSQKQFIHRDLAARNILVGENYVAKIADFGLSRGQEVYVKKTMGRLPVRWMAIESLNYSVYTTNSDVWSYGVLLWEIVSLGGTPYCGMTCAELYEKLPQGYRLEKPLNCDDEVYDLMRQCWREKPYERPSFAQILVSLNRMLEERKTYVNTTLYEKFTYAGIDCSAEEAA

For this test, the target named is Tie-2 (Homo sapiens, UniProt Q02763). Description: Tie-2 tyrosine kinase activity: kinase-dependent ATP consumption (pEY substrate, luciferase/luciferin chemiluminescence) or 33P-ATP incorporation into substrate. The class given is biochemical. Conditions: Tie-2 (human enzyme) inhibition, Table 2, class symbols A-D. The procedure, abridged:
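Values are IC50 categories: A below 50 nM, B above 50 to 1000 nM, C above 1000 to below 10,000 nM, D 10,000 nM or more. They were measured by 33P-ATP phosphate transfer onto a generic substrate bound to the plate (scintillation), or by luminescent luciferase detection of ATP used with pEY.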
Consider `Cc1nc(-c2cc(N)nc(Cl)c2)nn1CCN(C(=O)Cc1cccc2ccccc12)C1CCCC1` [Entry 185, N-{2-[3-(2-amino-6-chloropyridin-4-yl)-5-methyl-1H-1,2,4-triazol-1-yl]ethyl}-N-cyclopentyl-2-naphthalen-1-ylacetamide], for which the IC50 lay in the range of 0.05 to 1 µM. Under `Cc1nc(-c2cc(N)nc(N)c2)nn1CCN(C(=O)Cc1cccc2ccccc12)C1CCCC1` [Entry 186, N-cyclopentyl-N-{2-[3-(2,6-diaminopyridin-4-yl)-5-methyl-1H-1,2,4-triazol-1-yl]ethyl}-2-naphthalen-1-ylacetamide] stands 0.05 to 1 µM; under `CCOc1cc(-c2nc(C)n(CCN(C(=O)Cc3cccc4ccccc34)C3CCCC3)n2)cc(N)n1` [Entry 187, N-(2-{3-[2-amino-6-(ethyloxy)pyridin-4-yl]-5-methyl-1H-1,2,4-triazol-1-yl}ethyl)-N-cyclopentyl-2-naphthalen-1-ylacetamide], 1 to 10 µM.

For the origin of these results see patent US8178570B2, “Tie-2 modulators and methods of use” (Exelixis, Inc., priority 2003, dated 2012).
